# Assay results: US8252832B2, “Kinesin inhibitors as cancer therapeutics” (Novartis AG, priority 2007, dated 2012)
# Marks after values point to notes of the source that are not given here.
# Legend:
# Colo-205 = assay: LDH release assay; format: cell-based; conditions: Homo sapiens
# Text: Identification of tumor types that are the most sensitive to the KSP inhibitors of the present invention can be accomplished using an unbiased approach that uses several cell-based assays. The assays chosen were as follows: • CellTiter-Glo®. This is an assay designed to measure ATP concentration in a cell culture, and can be correlated to cell number. Briefly CellTiter-Glo® (Promega Corporation) is a homogeneous method using the single CellTiter-Glo® reagent to detect ATP wherein ATP in the assay drives the activity of a thermostable luciferase to create a luminescent signal which can then be measured and correlated with the number of viable cells. Briefly, for adherent cells, 1,000 to 5,000 cells/well were plated in 96-well plates (100 μl/well) and let to adhere for 24 hours before being treated with drug. For non-adherent cells, 1,000 to 10,000 cells/well were plated in 96-well plates (100 μl/well) and immediately treated with drug. Drug dilutions were prepared in DMSO at 1000 times the final concentration. These dilutions were then diluted 1/100 in growth media before being added to the cells (11 μl/well) to achieve the desired final concentration. After 48 h in a 37° C. tissue culture incubator, the plates were processed for the CellTiter-Glo®assay according to the manufacturer's instructions. Protocol for a 72 hour cell proliferation assay: The 72 hour assay was performed the same way as the 48 hour assay except for the following modifications: For adherent cells, 500 to 5,000 cells/well were plated in 96-well plates (90 μl/well cell growth media) and left to adhere for 24 hours before being treated with drug. For non-adherent cells, 1,000 to 10,000 cells/well were plated in 96-well plates (90 μl/well cell growth media) and immediately treated with drug. Data values presented represent the concentration of test compound required for a 50% reduction in growth. • LDH release. […] The enzymatic reaction is coupled to a chemical reaction that uses a tetrazolium salt to form a formazan that is red and can be detected by its absorbance at 490 nm. […]
# [1] = system: KMS-11-luc disseminated disease; assay: KMS-11-luc disseminated disease model, tumor response and survival; format: in vivo, mouse
# Procedure: Experiments were performed using immunodeficient SCID-Beige female mice approximately 7-8 weeks old (Charles River Laboratories, Wilmington, Mass.). […] Routine animal care and assurance of welfare were as described above.
# Human KMS-11-luc multiple myeloma cells were obtained from the laboratory of Suzanne Trudel at the University of Toronto (Ontario, Canada) and tested to be free of Mycoplasma sp. and murine viruses in the IMPACT1 PCR assay panel (RADIL, University of Missouri, Columbia, Mo.). Prior to our receiving this cell line, it had been stably engineered to express luciferase by retroviral transfection of the pGC-gfp/luc vector. KMS-11-luc cells were grown in Iscove's medium supplemented with 2 mmol/L L-glutamine (Mediatech, Inc., Hemdon, Va.) and 10% fetal bovine serum (JRH Biosciences, catalog #12003-1000M). These cells were grown as suspension cultures, maintained at 37° C. in a humidified atmosphere containing 5% carbon dioxide. Cells were cultured for fewer than 10 passages prior to use. Cells were harvested at approximately 2 million cells/mL, and centrifuged at ˜800×g for 5 minutes at 4° C. and then resuspended in a 1:1 mixture of cold Hank's balanced salt solution (HBSS) and Matrigel™ (Mediatech Inc., catalog #21-021-CV; BD Biosciences, catalog #354234, respectively) at a concentration of 50 million cells/mL for implantation subcutaneously (injection volume of 0.2 mL). Alternatively, for the disseminated disease model, cells were prepared only in cold HBSS at a concentration of 100 million cells/mL for intravenous (i.v.) implantation via the tail vein (injection volume of 0.1 mL).
# Compound IIa and SB-715992 (free base) were formulated in 20% Captisol for a dose volume of 8 mL/kg. Doses were adjusted to each animal's body weight.
# For the efficacy evaluation in the disseminated disease model, 10 million cells in HBSS were injected i.v. via the tail vein in a total volume of […]. Forty mice were randomized and enrolled on study 10 days post-implant, with a mean photon count in the leg bones (right+left) of approximately 9×10^5 photons/second, as determined by bioluminescence imaging. Approximately 10 minutes prior to imaging, mice were injected i.p. with 150 mg/kg luciferin (Xenogen Corporation, Alameda, Calif.), followed by anesthetization with isoflurane. Photon emission was measured using a charge coupled device camera in the IVIS imaging system (Xenogen Corporation). Briefly, a gray-scale image of the mice was captured, followed by an overlay of a bioluminescence map representing the spatial distribution of photons detected from cleaved luciferin in the cancer cells expressing luciferase. Signal intensity was quantified using a customized version of the IGOR Pro version 4.09A Software (WaveMetrics, Inc., Lake Oswego, Oreg.) called Living Image version 2.50.2 (Xenogen). The sum of all detected photon counts from the right+left legs were determined. Bioluminescence of cancer cells in the animals was measured by imaging on designated days until the first mice developed hind limb paralysis due to disease burden, the main end point for when to humanely euthanize mice. The day of euthanasia for each mouse was recorded, and the remaining percentage of mice surviving was plotted over time (Kaplan-Meier survival analysis). P values were calculated using the log-rank test (GraphPad Prism 4.0 software) to assess differences between treated and control groups (p<0.05 was considered significant). […] Data analysis was as described above.
smiles,measurement,setting,value
CC(C)(C)[C@H](c1nc(-c2cc(F)ccc2F)cn1Cc1ccccc1)N(CC[C@H](N)CF)C(=O)CO [Compound IIa],EC50,"Colo-205; Colo-205, 48 h",0.11 nM
same,EC50,"Colo-205; Colo-205, 72 h",0.16 nM
same,"T/C, Day 13 (%)","[1]; 0.25 mg/kg, q4d × 3, i.v",15%
same,"Δ Tumor Bioluminescence, Day 13","[1]; 0.25 mg/kg, q4d × 3, i.v",2.2 × 10^7 ± 1.1 × 10^6 photons/sec
same,Mean Day of Survival,"[1]; 0.25 mg/kg, q4d × 3, i.v., listed as COMPOUND IIa",29** day
same,Mean Day of Survival,"[1]; 0.25 mg/kg, q4d × 3, i.v., listed as compound IIa",29 days
same,"T/C, Day 13 (%)","[1]; 0.5 mg/kg, q4d × 3, i.v",0.7* %
same,"Δ Tumor Bioluminescence, Day 13","[1]; 0.5 mg/kg, q4d × 3, i.v",1.1 × 10^6 ± 5.8 × 10^5 photons/sec
same,Mean Day of Survival,"[1]; 0.5 mg/kg, q4d × 3, i.v., listed as COMPOUND IIa",35** day
same,Mean Day of Survival,"[1]; 0.5 mg/kg, q4d × 3, i.v., listed as compound IIa",35 days
same,"Regression, Day 13 (%)","[1]; 1 mg/kg, q4d × 3, i.v.",47%
same,"Δ Tumor Bioluminescence, Day 13","[1]; 1 mg/kg, q4d × 3, i.v.",−4.3 × 10^5 ± 1.7 × 10^5 photons/sec
same,Mean Day of Survival,"[1]; 1 mg/kg, q4d × 3, i.v., listed as COMPOUND IIa",52** day
same,Mean Day of Survival,"[1]; 1 mg/kg, q4d × 3, i.v., listed as compound IIa",52 days
